Measured values from PMC6208485, “Discovery of the first macrolide antibiotic binding protein in Mycobacterium tuberculosis: a new antibiotic resistance drug target” (Protein & Cell, 2018).

Target: MABP-1 (Rv3197) (Mycobacterium tuberculosis, UniProt O53343)
Sequence (O53343 entry or part of it): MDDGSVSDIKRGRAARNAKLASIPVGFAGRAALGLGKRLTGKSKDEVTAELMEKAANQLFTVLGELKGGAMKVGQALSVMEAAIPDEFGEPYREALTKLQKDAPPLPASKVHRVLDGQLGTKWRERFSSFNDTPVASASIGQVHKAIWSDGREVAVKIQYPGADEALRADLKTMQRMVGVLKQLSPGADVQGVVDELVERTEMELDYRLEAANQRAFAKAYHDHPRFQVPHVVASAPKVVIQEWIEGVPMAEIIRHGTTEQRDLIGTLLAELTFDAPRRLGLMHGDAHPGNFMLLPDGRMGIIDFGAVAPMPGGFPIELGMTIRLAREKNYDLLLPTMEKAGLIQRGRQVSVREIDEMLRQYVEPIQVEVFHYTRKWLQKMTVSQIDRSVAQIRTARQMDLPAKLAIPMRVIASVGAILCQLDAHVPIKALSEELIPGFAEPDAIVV

Row | Structure (SMILES) | crystal structure of the complex
1 | Nc1ncnc2c1ncn2[C@@H]1O[C@H](COP(=O)(O)OP(=O)(O)O)[C@@H](O)[C@H]1O [ADP] | crystal structures of MABP-1 in complex with AMPPNP and with ADP, were determined
2 | Nc1ncnc2c1ncn2[C@@H]1O[C@H](COP(=O)(O)OP(=O)(O)NP(=O)(O)O)[C@@H](O)[C@H]1O [AMPPNP] | crystal structures of MABP-1 in complex with AMPPNP and with ADP, were determined
3 | CC[C@H]1OC(=O)[C@H](C)[C@@H](O[C@H]2C[C@@](C)(OC)[C@@H](O)[C@H](C)O2)[C@H](C)[C@@H](O[C@@H]2O[C@H](C)C[C@H](N(C)C)[C@H]2O)[C@](C)(O)C[C@@H](C)C(=O)[C@H](C)[C@@H](O)[C@]1(C)O [erythromycin] | The electron density for erythromycin was unequivocal revealing it is located in a shallow pocket
